Drawing on ChEMBL document CHEMBL3784916, “Synthesis and anticancer activity of novel fluorinated asiatic acid derivatives” (Eur J Med Chem, 2016), this text covers IC50 and Activity for 6 compounds.

The test system of one data set is HT-29. Description: Cytotoxicity against human HT-29 cells after 72 hrs by MTT assay. Conditions: HT-29, 72 h. The class given is functional, cell-based. In general terms: Formazan colour is commonly taken as a measure of viable cells.
The subject of another data set is HeLa. Description: Cytotoxicity against human HeLa cells after 72 hrs by MTT assay. The data set is classed as functional, cell-based.
Another data set relates to Jurkat. In words: Cytotoxicity against human Jurkat cells after 72 hrs by XTT assay. The data set is classed as functional, cell-based.
Data set [1] is described as follows: (§1) Cytotoxicity against human PC3 cells after 72 hrs by MTT assay. The data set is classed as functional, cell-based. Conditions: PC-3, 72 h.
In the next data set the test system is PC-3. The description is as §1. The class given is functional, cell-based.
The subject of the next data set is MCF7. Description: Cytotoxicity against human MCF7 cells after 72 hrs by MTT assay. The data set is classed as functional, cell-based. The note with it: for IC50: MCF7, 72 h.
A short description of data set [2]: (§2) Cytotoxicity against human MIAPaCa2 cells after 72 hrs by MTT assay. The class given is functional, cell-based. The note with it: MIA PaCa-2, 72 h.
The test system of a further data set is MIA PaCa-2. The description is as §2. The class given is functional, cell-based.
The next data set relates to A-375. Description: Cytotoxicity against human A375 cells after 72 hrs by MTT assay. Conditions: for IC50: A-375, 72 h. The class given is functional, cell-based.
In the next data set the test system is BJ. In words: Cytotoxicity against human BJ cells after 72 hrs by MTT assay. The data set is classed as cell-based. Conditions: for IC50: Homo sapiens, BJ; for Activity: human, bj.

In the case of `C[C@H]1[C@H](C)CC[C@]2(C(=O)O)CC[C@]3(C)C(=CC[C@@H]4[C@@]5(C)C[C@@H](O)[C@H](O)[C@@](C)(CO)[C@@H]5CC[C@]43C)[C@H]12` [ASIATIC ACID], the IC50 with HT-29 was 64300 nM; with HeLa, 52500 nM; in the data set with Jurkat it was 37200 nM; in data set [1] it was 67200 nM; in the data set with MCF7 it was 68500 nM; in data set [2] it was 50700 nM. Further, the IC50 in the data set on A-375 amounted to 50300 nM; with BJ, 88700 nM. Further, the Activity result in the data set on Jurkat, in the data set on PC-3, in the data set on MCF7, with MIA PaCa-2 and with A-375 was “Dose-dependent effect” in each case.
As for `CCCC(=O)OC[C@]1(C)C=C(C=O)[C@@]2(C)[C@H]1CC[C@]1(C)[C@@H]2C[C@@H](F)[C@]23OC(=O)[C@@]4(CC[C@@H](C)[C@H](C)[C@H]42)CC[C@]31C`, the IC50 in the data set on HT-29 was found to be 1290 nM; in the data set on HeLa, 950 nM; in the data set on MCF7 it was 1400 nM; in [2] it was 1470 nM; in the data set on A-375, 1020 nM. For the same compound, the Activity entry in the data set with Jurkat, with PC-3, in the data set on MCF7, in the data set on MIA PaCa-2 and with A-375 was “Dose-dependent effect” in each case.
For `C[C@H]1[C@H](C)CC[C@@]23CC[C@]4(C)[C@](OC2=O)([C@H](F)C[C@@H]2[C@@]5(C)C(C=O)=C[C@@](C)(COC(=O)c6ccccc6)[C@@H]5CC[C@]24C)[C@H]13`, the IC50 with HT-29 is 1050 nM; in the data set with HeLa, 800 nM; with MCF7 it was 880 nM; in [2], 1330 nM; in the data set on A-375, 960 nM; in the data set with BJ, 2240 nM. In addition, the Activity result with Jurkat, in the data set with PC-3, in the data set with MCF7, in the data set with MIA PaCa-2 and with A-375 was “Dose-dependent effect” each time.
In the case of `Cc1nccn1C(=O)OC[C@]1(C)C=C(C=O)[C@@]2(C)[C@H]1CC[C@]1(C)[C@@H]2C[C@@H](F)[C@]23OC(=O)[C@@]4(CC[C@@H](C)[C@H](C)[C@H]42)CC[C@]31C`, the values for the IC50 in the data set with HT-29 and in the data set with HeLa were 2800 nM and 1630 nM, respectively. The Activity result in the data set with Jurkat, in the data set with PC-3, in the data set with MCF7, in the data set with MIA PaCa-2, in the data set with A-375 and in the data set with BJ was “Dose-dependent effect” each time.
Take `C[C@H]1[C@H](C)CC[C@@]23CC[C@]4(C)[C@](OC2=O)([C@H](F)C[C@@H]2[C@@]5(C)CC(=O)[C@H](O)[C@@](C)(CO)[C@@H]5CC[C@]24C)[C@H]13`: the IC50 is 23500 nM with HT-29 and 24500 nM with HeLa. Besides, the Activity result with Jurkat, in the data set with PC-3, in the data set with MCF7, in the data set with MIA PaCa-2, in the data set with A-375 and with BJ was “Dose-dependent effect” throughout.
In the case of `COC(=O)CN1C(=O)[C@]23CC[C@@H](C)[C@H](C)[C@H]2[C@]12[C@H](F)C[C@@H]1[C@@]4(C)C[C@@H](OC(C)=O)[C@H](OC(C)=O)[C@@](C)(COC(C)=O)[C@@H]4CC[C@@]1(C)[C@]2(C)CC3`, the values for the concentration for half-maximal inhibition (IC50) in the data set with HT-29 and with HeLa were 9230 nM and 2720 nM, respectively. Also, the Activity result in the data set with Jurkat, in the data set with PC-3, in the data set with MCF7, with MIA PaCa-2, with A-375 and in the data set with BJ was “Dose-dependent effect” throughout.

As usually defined, the IC50 is the point on the concentration scale where inhibition reaches its midpoint.
